From ChEMBL document CHEMBL1201862, “PubChem BioAssay data set” (2004)
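Results reflect a 48-hour exposure of cells in 96-well plates to compound at five concentrations. At the GI50, growth is halved.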 Activity calls are given as the source filed them. Rule as the data show it: active = GI50 up to about 1.1 µM and inactive = higher.

Assays:
Test in all cases: DTP human tumour cell line panel, 48 h
CCRF-CEM = tested on: CCRF-CEM
LOX IMVI = tested on: LOX IMVI
HCT-116 = tested on: HCT-116
HCT-15 = tested on: HCT-15
PC-3 = tested on: PC-3
ACHN = tested on: ACHN
UO-31 = tested on: UO-31
786-0 = tested on: 786-0
NCI-H226 = tested on: NCI-H226
MDA-MB-231 = tested on: MDA-MB-231
SN12C = tested on: SN12C
NCI-H23 = tested on: NCI-H23
SF-268 = tested on: SF-268
OVCAR-8 = tested on: OVCAR-8
MOLT-4 = tested on: MOLT-4
KM12 = tested on: KM12
NCI/ADR-RES = tested on: NCI/ADR-RES
K562 = tested on: K562
SNB-75 = tested on: SNB-75
HCC 2998 = tested on: HCC 2998

SMILES | GI50 (CCRF-CEM) | GI50 (LOX IMVI) | GI50 (HCT-116) | GI50 (HCT-15) [µM] | GI50 (PC-3) | GI50 (ACHN) | GI50 (UO-31) | GI50 (786-0) | GI50 (NCI-H226) | GI50 (MDA-MB-231) | GI50 (SN12C) | GI50 (NCI-H23) | GI50 (SF-268) | GI50 (OVCAR-8) | GI50 (MOLT-4) | GI50 (KM12) | GI50 (NCI/ADR-RES) | GI50 (K562) | GI50 (SNB-75) | GI50 (HCC 2998)
O=C1/C(=C\c2ccc([N+](=O)[O-])o2)SC2NC(COc3ccc(Cl)cc3)=NN12 (stereo not given) | 1.99 µM (inactive) | 2.93 µM (inactive) | 3.4 µM (inactive) | 2.07 | 9.73 µM (inactive) | 1.96 µM (inactive) | 4.62 µM (inactive) | 3.4 µM (inactive) | 18.6 µM (inactive) | 3.31 µM (inactive) | 14 µM (inactive) | 10 µM (inactive) | 3.48 µM (inactive) | 3.18 µM (inactive) | 3.02 µM (inactive) | 13.7 µM (inactive) | 6.4 µM (inactive) | 2.99 µM (inactive) | 15.5 µM (inactive) | –
CC(C)C1(NC(=O)C2CC3c4cccc5[nH]cc(c45)CC3N(C)C2)OC2(O)C3CCCN3C(=O)C(Cc3ccccc3)N2C1=O (stereo not given) | 5.9 µM (inactive) | 12.1 µM (inactive) | 16.9 µM (inactive) | 23.6 | 5.62 µM (inactive) | 21.4 µM (inactive) | 12.9 µM (inactive) | 36.7 µM (inactive) | – | 17.7 µM (inactive) | > 100 µM (inactive) | 30.5 µM (inactive) | > 100 µM (inactive) | 42.4 µM (inactive) | 3.81 µM (inactive) | 15.2 µM (inactive) | 35.4 µM (inactive) | – | 6.71 µM (inactive) | 19 µM (inactive)
Cc1cc(C(O)CNC(C)CCn2cnc3c2c(=O)n(C)c(=O)n3C)ccc1O (stereo not given) | > 100 µM (inactive) | > 100 µM (inactive) | > 100 µM (inactive) | > 100 | > 100 µM (inactive) | > 100 µM (inactive) | > 100 µM (inactive) | > 100 µM (inactive) | > 100 µM (inactive) | > 100 µM (inactive) | > 100 µM (inactive) | > 100 µM (inactive) | > 100 µM (inactive) | > 100 µM (inactive) | > 100 µM (inactive) | > 100 µM (inactive) | > 100 µM (inactive) | > 100 µM (inactive) | > 100 µM (inactive) | –
CN(C)c1nc2oc(-c3ccccc3)c(-c3ccccc3)c2c2nnnn12 | > 100 µM (inactive) | > 100 µM (inactive) | > 100 µM (inactive) | > 100 | – | > 100 µM (inactive) | > 100 µM (inactive) | > 100 µM (inactive) | > 100 µM (inactive) | > 100 µM (inactive) | > 100 µM (inactive) | > 100 µM (inactive) | > 100 µM (inactive) | > 100 µM (inactive) | > 100 µM (inactive) | > 100 µM (inactive) | > 100 µM (inactive) | > 100 µM (inactive) | 41.1 µM (inactive) | > 100 µM (inactive)
O=C(NCCc1n[nH]c2c1C(=O)C=C(Nc1ccccc1)C2=O)OCc1ccccc1 | > 100 µM (inactive) | > 100 µM (inactive) | 97.3 µM (inactive) | > 100 | > 100 µM (inactive) | > 100 µM (inactive) | > 100 µM (inactive) | 47.1 µM (inactive) | > 100 µM (inactive) | > 100 µM (inactive) | > 100 µM (inactive) | > 100 µM (inactive) | > 100 µM (inactive) | > 100 µM (inactive) | > 100 µM (inactive) | > 100 µM (inactive) | > 100 µM (inactive) | – | > 100 µM (inactive) | –
CN(C(=O)Nc1ccc(Cl)c(Cl)c1)C1CCCC[C@@H]1N1CCCC1 (stereo not given in full) | 30.5 µM (inactive) | 30.3 µM (inactive) | 51.8 µM (inactive) | 41.4 | 41.4 µM (inactive) | 52 µM (inactive) | 19.3 µM (inactive) | 48.6 µM (inactive) | 0.092 µM (active) | 47.9 µM (inactive) | > 100 µM (inactive) | > 100 µM (inactive) | 31.6 µM (inactive) | 79.3 µM (inactive) | 19.6 µM (inactive) | 39.5 µM (inactive) | 72.4 µM (inactive) | 24.2 µM (inactive) | 40.2 µM (inactive) | –
O=C(Nc1nnc(-c2c(Cl)c(Cl)c(Cl)c(Cl)c2-c2nc3cc(C(=O)c4ccccc4)ccc3[nH]2)o1)c1ccccc1 | 8.36 µM (inactive) | 15.1 µM (inactive) | 23.3 µM (inactive) | 9.98 | 13 µM (inactive) | 19.5 µM (inactive) | 31.8 µM (inactive) | 16.8 µM (inactive) | 16.7 µM (inactive) | 17.7 µM (inactive) | 15.3 µM (inactive) | 18.9 µM (inactive) | – | 26.9 µM (inactive) | 13.7 µM (inactive) | 23.2 µM (inactive) | 14 µM (inactive) | 5.78 µM (inactive) | 15.1 µM (inactive) | –
